Laboratory results from ChEMBL document CHEMBL4715697, “Synthesis and biological activity of benzamide DNA minor groove binders” (2016).

Tests used:
Assay type in all cases: functional
HCC 2998 = assay: Growth inhibition of human HCC 2998 cells assessed as cell growth at 1 uM incubated for 48 hrs by sulforhodamine B assay relative to control; conditions: read-out: Activity
K562 [1] = assay: Growth inhibition of human K562 cells assessed as cell growth at 0.1 uM incubated for 48 hrs by sulforhodamine B assay relative to control; conditions: read-out: Activity
UACC-62 = assay: Growth inhibition of human UACC-62 cells assessed as cell growth at 0.1 uM incubated for 48 hrs by sulforhodamine B assay relative to control; conditions: read-out: Activity
SW-620 [2] = assay: Growth inhibition of human SW-620 cells assessed as cell growth at 100 uM incubated for 48 hrs by sulforhodamine B assay relative to control; conditions: read-out: Activity
NCI-H460 = assay: Growth inhibition of human NCI-H460 cells assessed as cell growth at 0.1 uM incubated for 48 hrs by sulforhodamine B assay relative to control; conditions: read-out: Activity
SN12C = assay: Growth inhibition of human SN12C cells assessed as cell growth at 1 uM incubated for 48 hrs by sulforhodamine B assay relative to control; conditions: read-out: Activity
DU-145 = assay: Growth inhibition of human DU-145 cells incubated for 48 hrs by sulforhodamine B assay
OVCAR-3 = assay: Growth inhibition of human OVCAR-3 cells assessed as cell growth at 1 uM incubated for 48 hrs by sulforhodamine B assay relative to control; conditions: read-out: Activity
RPMI-8226 = assay: Growth inhibition of human RPMI-8226 cells assessed as cell growth at 0.1 uM incubated for 48 hrs by sulforhodamine B assay relative to control; conditions: read-out: Activity
NCI-H322M = assay: Growth inhibition of human NCI-H322M cells assessed as cell growth at 0.1 uM incubated for 48 hrs by sulforhodamine B assay relative to control; conditions: read-out: Activity
IGROV-1 = assay: Growth inhibition of human IGROV-1 cells incubated for 48 hrs by sulforhodamine B assay
BT-549 = assay: Growth inhibition of human BT-549 cells assessed as cell growth at 0.1 uM incubated for 48 hrs by sulforhodamine B assay relative to control; conditions: read-out: Activity
MDA-MB-435 = assay: Growth inhibition of human MDA-MB-435 cells assessed as cell growth at 0.01 uM incubated for 48 hrs by sulforhodamine B assay relative to control; conditions: read-out: Activity
SR [3] = assay: Growth inhibition of human SR cells assessed as cell growth at 0.01 uM incubated for 48 hrs by sulforhodamine B assay relative to control; conditions: read-out: Activity
PC-3 = assay: Growth inhibition of human PC-3 cells assessed as cell growth at 0.1 uM incubated for 48 hrs by sulforhodamine B assay relative to control; conditions: read-out: Activity
M14 = assay: Growth inhibition of human M14 cells assessed as cell growth at 0.1 uM incubated for 48 hrs by sulforhodamine B assay relative to control; conditions: read-out: Activity
A549 = assay: Growth inhibition of human A549/ATCC cells incubated for 48 hrs by sulforhodamine B assay
SNB-19 = assay: Growth inhibition of human SNB-19 cells assessed as cell growth at 0.1 uM incubated for 48 hrs by sulforhodamine B assay relative to control; conditions: read-out: Activity
SK-MEL-2 = assay: Growth inhibition of human SK-MEL-2 cells assessed as cell growth at 0.01 uM incubated for 48 hrs by sulforhodamine B assay relative to control; conditions: read-out: Activity
K562 [4] = assay: Growth inhibition of human K562 cells assessed as cell growth at 1 uM incubated for 48 hrs by sulforhodamine B assay relative to control; conditions: read-out: Activity
HCT-15 [5] = assay: Growth inhibition of human HCT-15 cells assessed as cell growth at 0.01 uM incubated for 48 hrs by sulforhodamine B assay relative to control; conditions: read-out: Activity
SW-620 [6] = assay: Growth inhibition of human SW-620 cells assessed as cell growth at 0.1 uM incubated for 48 hrs by sulforhodamine B assay relative to control; conditions: read-out: Activity
SK-MEL-28 [7] = assay: Growth inhibition of human SK-MEL-28 cells incubated for 48 hrs by sulforhodamine B assay
SK-MEL-28 [8] = assay: Growth inhibition of human SK-MEL-28 cells assessed as cell growth at 0.01 uM incubated for 48 hrs by sulforhodamine B assay relative to control; conditions: read-out: Activity
T47D = assay: Growth inhibition of human T47D cells assessed as cell growth at 0.01 uM incubated for 48 hrs by sulforhodamine B assay relative to control; conditions: read-out: Activity
U-251 = assay: Growth inhibition of human U-251 cells assessed as cell growth at 100 uM incubated for 48 hrs by sulforhodamine B assay relative to control; conditions: read-out: Activity
SR [9] = assay: Growth inhibition of human SR cells incubated for 48 hrs by sulforhodamine B assay
HCT-116 = assay: Growth inhibition of human HCT-116 cells incubated for 48 hrs by sulforhodamine B assay
NCI-H226 = assay: Growth inhibition of human NCI-H226 cells assessed as cell growth at 100 uM incubated for 48 hrs by sulforhodamine B assay relative to control; conditions: read-out: Activity
HCT-15 [10] = assay: Growth inhibition of human HCT-15 cells assessed as cell growth at 1 uM incubated for 48 hrs by sulforhodamine B assay relative to control; conditions: read-out: Activity
SW-620 [11] = assay: Growth inhibition of human SW-620 cells assessed as cell growth at 0.01 uM incubated for 48 hrs by sulforhodamine B assay relative to control; conditions: read-out: Activity
HL-60(TB) = assay: Growth inhibition of human HL-60(TB) cells incubated for 48 hrs by sulforhodamine B assay
A498 = assay: Growth inhibition of human A498 cells incubated for 48 hrs by sulforhodamine B assay
SF-268 = assay: Growth inhibition of human SF-268 cells assessed as cell growth at 100 uM incubated for 48 hrs by sulforhodamine B assay relative to control; conditions: read-out: Activity
[12] = read-out: LC50 (the source's name)
[13] = read-out: pLC50 (the source's name) (converted)

`CC(=O)Nc1cc(CCl)cc(NC(=O)c2ccc(C(=O)Nc3cccc(NC(=O)CCCN(C)C)c3)cc2)c1` showed a growth at 1 µM (HCC 2998) of 96%, a growth at 0.1 µM (K562 [1]) of 99% and a growth at 0.1 µM (UACC-62) of 103%. The growth at 100 µM (SW-620 [2]) was 92%, the growth at 0.1 µM (NCI-H460) was 106% and the growth at 1 µM (SN12C) was 105%. It also gave a GI50 (DU-145; read-out: GI50) greater than 100 µM, a CC50 (DU-145; [12]) greater than 100 µM and a TGI (DU-145; read-out: TGI) greater than 100 µM. The GI50 (DU-145; read-out: pGI50 (converted)) was greater than 100 µM, the CC50 (DU-145; [13]) was greater than 100 µM and the TGI (DU-145; read-out: pTGI) was greater than 100 µM. For the same compound, the growth at 1 µM (OVCAR-3) was 109%, the growth at 0.1 µM (RPMI-8226) was 113% and the growth at 0.1 µM (NCI-H322M) was 103%. It also gave a GI50 (IGROV-1; read-out: GI50) greater than 100 µM, a CC50 (IGROV-1; [12]) greater than 100 µM and a TGI (IGROV-1; read-out: TGI) greater than 100 µM. For the same compound, the GI50 (IGROV-1; read-out: pGI50 (converted)) was greater than 100 µM, the CC50 (IGROV-1; [13]) was greater than 100 µM and the TGI (IGROV-1; read-out: pTGI) was greater than 100 µM. It also gave a growth at 0.1 µM (BT-549) of 103%, a growth at 0.01 µM (MDA-MB-435) of 96% and a growth at 0.01 µM (SR [3]) of 96%. It also gave a growth at 0.1 µM (PC-3) of 103%, a growth at 0.1 µM (M14) of 102% and a GI50 (A549; read-out: GI50) greater than 100 µM. It also gave a CC50 (A549; [12]) greater than 100 µM, a TGI (A549; read-out: TGI) greater than 100 µM and a GI50 (A549; read-out: pGI50 (converted)) greater than 100 µM. It also gave a CC50 (A549; [13]) greater than 100 µM, a TGI (A549; read-out: pTGI) greater than 100 µM and a growth at 0.1 µM (SNB-19) of 104%. For the same compound, the growth at 0.01 µM (SK-MEL-2) was 107%, the growth at 1 µM (K562 [4]) was 96% and the growth at 0.01 µM (HCT-15 [5]) was 94%. For the same compound, the growth at 0.1 µM (SW-620 [6]) was 107%, the GI50 (SK-MEL-28 [7]; read-out: GI50) was greater than 100 µM and the LC50 (50% lethal concentration) (SK-MEL-28 [7]; read-out: LC50) was greater than 100 µM. The TGI (SK-MEL-28 [7]; read-out: TGI) was greater than 100 µM, the GI50 (SK-MEL-28 [7]; read-out: pGI50 (converted)) was greater than 100 µM and the LC50 (50% lethal concentration) (SK-MEL-28 [7]; read-out: pLC50 (converted)) was greater than 100 µM. For the same compound, the TGI (SK-MEL-28 [7]; read-out: pTGI) was greater than 100 µM, the growth at 0.01 µM (SK-MEL-28 [8]) was 98% and the growth at 0.01 µM (T47D) was 106%. It also gave a growth at 100 µM (U-251) of 95%, a GI50 (SR [9]; read-out: GI50) greater than 100 µM and a CC50 (SR [9]; [12]) greater than 100 µM. It also gave a TGI (SR [9]; read-out: TGI) greater than 100 µM, a GI50 (SR [9]; read-out: pGI50 (converted)) greater than 100 µM and a CC50 (SR [9]; [13]) greater than 100 µM. It also gave a TGI (SR [9]; read-out: pTGI) greater than 100 µM, a GI50 (HCT-116; read-out: GI50) greater than 100 µM and a CC50 (HCT-116; [12]) greater than 100 µM. For the same compound, the TGI (HCT-116; read-out: TGI) was greater than 100 µM, the GI50 (HCT-116; read-out: pGI50 (converted)) was greater than 100 µM and the CC50 (HCT-116; [13]) was greater than 100 µM. The TGI (HCT-116; read-out: pTGI) was greater than 100 µM, the growth at 100 µM (NCI-H226) was 87% and the growth at 1 µM (HCT-15 [10]) was 90%. For the same compound, the growth at 0.01 µM (SW-620 [11]) was 106%, the GI50 (HL-60(TB); read-out: GI50) was greater than 100 µM and the LC50 (HL-60(TB); read-out: LC50) was greater than 100 µM. The TGI (HL-60(TB); read-out: TGI) was greater than 100 µM, the GI50 (HL-60(TB); read-out: pGI50 (converted)) was greater than 100 µM and the LC50 (HL-60(TB); read-out: pLC50 (converted)) was greater than 100 µM. It also gave a TGI (HL-60(TB); read-out: pTGI) greater than 100 µM, a GI50 (A498; read-out: GI50) greater than 100 µM and an LC50 (concentration giving 50% net cell kill) (A498; read-out: LC50) greater than 100 µM. The TGI (A498; read-out: TGI) was greater than 100 µM, the GI50 (A498; read-out: pGI50 (converted)) was greater than 100 µM and the LC50 (concentration giving 50% net cell kill) (A498; read-out: pLC50 (converted)) was greater than 100 µM. For the same compound, the TGI (A498; read-out: pTGI) was greater than 100 µM and the growth at 100 µM (SF-268) was 88%.
